Results taken from article PMC10253456, “Investigating the Contribution of Major Drug-Metabolising Enzymes to Possum-Specific Fertility Control” (International Journal of Molecular Sciences, 2023).
Read-outs that look alike come from different tables or passages of the source.

Experiments:
UGT2B [1] = settings: avian
UGT2B [2] = experiment: p-nitrophenol glucuronidation activity in possum liver microsomes; format: biochemical, possum (Trichosurus vulpecula); settings: for Glucuronidation Activities / Percent of Control: p-nitrophenol 0.625 mM
CYP3A [3] = experiment: CYP3A catalytic activity (erythromycin N-demethylation) in possum liver microsomes; settings: for Percent control catalytic activity at estimated IC50 / Percent control catalytic activity at estimated 2-fold IC50: possum liver microsomes, initial screen n=1; for Percent control catalytic activity at estimated IC50: compounds without reported IC50 at 1 µM; for Percent control catalytic activity at estimated 2-fold IC50: compounds without reported IC50 at 5 µM; for inhibition of CYP3A catalytic activities at higher concentration: 10 µM; for % of control (catalytic activity at 2-fold IC50) / Catalytic activity at 2-fold IC50: compound at estimated 2-fold IC50 (5 µM where none reported); for reduced catalytic activity of possum CYP3A, % of the control: mainly at 5 µM or an estimated 2-fold IC50, not significantly different
Protocol: (§1) Possums were collected from the Otago Peninsula (Dunedin) and the Okuti Valley, Banks Peninsula (Christchurch) in New Zealand in collaboration with the Otago Peninsula Biodiversity Group and Manaaki Whenua-Landcare Research, respectively. […] Possums were caged and humanely killed by a blow to the head, and the livers were harvested, snap-frozen in liquid nitrogen, and stored in a freezer at −80 °C until the preparation of microsomal fractions. […] Mice were euthanised by carbon dioxide inhalation and the livers were removed and microsomes prepared. […] The livers from avian species (mallards and a swan) were kindly donated by a local bird hunting group based in Dunedin, New Zealand. The livers from avian species were treated similarly to those mentioned above for the possum samples.
(§2) Microsomal preparation was carried out as previously described [76]. […] All procedures were performed at 0–4 °C. The liver samples were minced and homogenised in Buffer A (0.1 M Tris, 0.1 M potassium chloride, 1 mM EDTA, and 20 μM butylated hydroxytoluene, at pH = 7.4) using the Teflon-glass homogeniser (5–6 vertical passes). The samples were centrifuged at 10,000× g for 20 min. The supernatant was then transferred into another set of centrifuge tubes and spun at 100,000× g for 60 min. The pellet was resuspended in Buffer B (0.1 M potassium pyrophosphate, 1 mM EDTA, and 20 μM butylated hydroxytoluene, at pH = 7.4), homogenised, and recentrifuged at 100,000× g for 60 min. Finally, the pellet was homogenised in 1–2 mL of Buffer C (10 mM Tris-HCl, 1 mM EDTA, and 4% glycerol (v/v)), and stored at −80 °C until use. The protein concentration of the microsomes was determined using the bicinchoninic acid (BCA) method [77].
(§3) CYP3A catalytic activity was determined using the erythromycin N-demethylation activity assay, as described [78]. The reaction mixture (final volume of 1 mL and final protein concentration of 1 mg) contained 500 µL of microsomes in 0.1 M phosphate buffer (pH 7.4) and 400 µL of erythromycin buffer (0.45 mM), and 50 µL of the test compound was pre-warmed at 37 °C for 2 min. The reaction was initiated with 50 µL of 2.5 mM nicotinamide adenine dinucleotide phosphate (NADP^+) and incubated for 30 min at 37 °C. […] The tubes were vortexed and left for 5 min (at room temperature), and then 330 µL of saturated barium hydroxide was added. The tubes were further vortexed and left for 5 min (at room temperature). The tubes were then centrifuged at 1800× g for 10 min. To 830 µL of the supernatant, 330 µL of Nash reagent (30% (w/v) ammonium acetate, 0.4% (v/v) acetylacetone) was added and further incubated for 30 min at 60 °C. The blank tube contained 330 µL of Nash reagent and 830 µL of Milli-Q water. […] The CYP3A activities were determined in nmol/mg/min using standard curve data. Results presented are the mean ± SEM of 3 independent experiments performed in duplicate unless otherwise stated.

CYP3A [4] = experiment: CYP3A catalytic activity (erythromycin N-demethylation) in mouse liver microsomes; settings: for Percent control catalytic activity at estimated IC50 / Percent control catalytic activity at estimated 2-fold IC50: mouse liver microsomes, initial screen n=1; for Percent control catalytic activity at estimated IC50: compounds without reported IC50 at 1 µM; for Percent control catalytic activity at estimated 2-fold IC50: compounds without reported IC50 at 5 µM; for inhibition of CYP3A catalytic activities at higher concentration: 10 µM; for % of control (catalytic activity at 2-fold IC50) / Catalytic activity at 2-fold IC50: compound at estimated 2-fold IC50 (5 µM where none reported)
Protocol: as §1, §2, §3

UGT2B [5] = experiment: p-nitrophenol glucuronidation activity in mouse liver microsomes; settings: mouse
UGT2B [6] = experiment: p-nitrophenol glucuronidation activity in pooled human liver microsomes; settings: pooled human liver microsomes
CYP3A [7] = experiment: CYP3A catalytic activity (erythromycin N-demethylation) in pooled human liver microsomes; settings: for % of control (catalytic activity at 2-fold IC50) / Catalytic activity at 2-fold IC50: compound at estimated 2-fold IC50 (5 µM where none reported); for activity at 30 min: human, pH 7.4, probe erythromycin, % of control (catalytic activity at IC50), compound at estimated IC50 (1 µM where none reported)
Protocol: as §3

CYP3A [8] = settings: avian; for Catalytic activity at 2-fold IC50 / % of control (catalytic activity at 2-fold IC50): compound at estimated 2-fold IC50 (5 µM where none reported)
Protocol: as §1, §2, §3

[9] = compound at estimated 2-fold IC50
[10] = at estimated IC50 and 2-fold IC50 values

COc1cc(C2Oc3ccc([C@H]4Oc5cc(O)cc(O)c5C(=O)[C@@H]4O)cc3OC2CO)ccc1O (some centres unmarked) [Isosilybin]
% of control (UGT2B4 catalytic activity at 2-fold IC50) (UGT2B [1]; [9]): 67 % of control | UGT2B4 catalytic activity at 2-fold IC50 (UGT2B [1]; [9]): 0.28 ± 0.11 µmol/mg/min | % of control (UGT2B4 catalytic activity at IC50) (UGT2B [1]; compound at estimated IC50): 101 % of control | inhibitory potential on glucuronidation activity with varying concentrations of p-nitrophenol (substrate) (UGT2B [2]; Table 1): no significant changes compared to their respective control activities | p-nitrophenol glucuronidation (UGT2B) activity, % of the control (UGT2B [2]; [10]): > 65 % of the control | % of control (UGT2B4 catalytic activity at 2-fold IC50) (UGT2B [2]; [9]): 65 % of control | UGT2B4 catalytic activity at 2-fold IC50 (UGT2B [2]; [9]): 2.21 ± 0.17 µmol/mg/min | % of control (UGT2B4 catalytic activity at IC50) (UGT2B [2]; compound at estimated IC50): 78 % of control | Glucuronidation Activities (UGT2B [2]; isosilybin 100 µM): 0.12 ± 0.09 µmol/mg/min | Percent of Control (UGT2B [2]; isosilybin 100 µM): 63% of Control | Glucuronidation Activities (UGT2B [2]; isosilybin 200 µM): 0.13 ± 0.05 µmol/mg/min | Percent of Control (UGT2B [2]; isosilybin 200 µM): 67% of Control | Percent control catalytic activity at estimated IC50 (CYP3A [3]): 73 percent control | Percent control catalytic activity at estimated IC50 (CYP3A [4]): 71 percent control | % of control (UGT2B4 catalytic activity at 2-fold IC50) (UGT2B [5]; [9]): 80 % of control | UGT2B4 catalytic activity at 2-fold IC50 (UGT2B [5]; [9]): 1.55 ± 0.19 µmol/mg/min | % of control (UGT2B4 catalytic activity at IC50) (UGT2B [5]; compound at estimated IC50): 96 % of control | p-nitrophenol glucuronidation (UGT2B) activity, % of the control (UGT2B [6]; [10]): no significant inhibition | % of control (UGT2B4 catalytic activity at 2-fold IC50) (UGT2B [6]; [9]): 107 % of control | UGT2B4 catalytic activity at 2-fold IC50 (UGT2B [6]; [9]): 3.15 µmol/mg/min | % of control (UGT2B4 catalytic activity at IC50) (UGT2B [6]; compound at estimated IC50): 93 % of control

C[C@]12CC[C@H](O)CC1=CC[C@@H]1[C@@H]2CC[C@]2(C)C(n3cnc4ccccc43)=CC[C@@H]12 [Galeterone]
% of control (catalytic activity at 2-fold IC50) (CYP3A [7]): 114 % of control | Catalytic activity at 2-fold IC50 (CYP3A [7]): 0.61 nmol/mg/min | activity at 30 min (CYP3A [7]): 99% | Percent control catalytic activity at estimated IC50 (CYP3A [3]): 76 percent control | Percent control catalytic activity at estimated 2-fold IC50 (CYP3A [3]): 80 percent control | inhibition of CYP3A catalytic activities at higher concentration (CYP3A [3]; possum): did not show any significant inhibition | % of control (catalytic activity at 2-fold IC50) (CYP3A [3]; possum): 83 % of control | Catalytic activity at 2-fold IC50 (CYP3A [3]; possum): 0.32 ± 0.02 nmol/mg/min | reduced catalytic activity of possum CYP3A, % of the control (CYP3A [3]; possum): ~ 35 % of the control | Percent control catalytic activity at estimated IC50 (CYP3A [4]): 88 percent control | Percent control catalytic activity at estimated 2-fold IC50 (CYP3A [4]): 86 percent control | inhibition of CYP3A catalytic activities at higher concentration (CYP3A [4]; mouse): did not show any significant inhibition | % of control (catalytic activity at 2-fold IC50) (CYP3A [4]; mouse): 105 % of control | Catalytic activity at 2-fold IC50 (CYP3A [4]; mouse): 0.63 ± 0.10 nmol/mg/min | Catalytic activity at 2-fold IC50 (CYP3A [8]): 0.36 ± 0.04 nmol/mg/min

O=C1c2ccccc2C(=O)c2c1ccc(O)c2O [Alizarin]
% of control (catalytic activity at 2-fold IC50) (CYP3A [7]): 98 % of control | Catalytic activity at 2-fold IC50 (CYP3A [7]): 0.57 nmol/mg/min | Percent control catalytic activity at estimated IC50 (CYP3A [3]): 70 percent control | Percent control catalytic activity at estimated 2-fold IC50 (CYP3A [3]): 77 percent control | inhibition of CYP3A catalytic activities at higher concentration (CYP3A [3]; possum): did not show any significant inhibition | % of control (catalytic activity at 2-fold IC50) (CYP3A [3]; possum): 84 % of control | Catalytic activity at 2-fold IC50 (CYP3A [3]; possum): 0.27 ± 0.01 nmol/mg/min | reduced catalytic activity of possum CYP3A, % of the control (CYP3A [3]; possum): ~ 35 % of the control | Percent control catalytic activity at estimated IC50 (CYP3A [4]): 91 percent control | Percent control catalytic activity at estimated 2-fold IC50 (CYP3A [4]): 89 percent control | inhibition of CYP3A catalytic activities at higher concentration (CYP3A [4]; mouse): did not show any significant inhibition | % of control (catalytic activity at 2-fold IC50) (CYP3A [4]; mouse): 96 % of control | Catalytic activity at 2-fold IC50 (CYP3A [4]; mouse): 0.57 ± 0.06 nmol/mg/min | % of control (catalytic activity at 2-fold IC50) (CYP3A [8]): 94 % of control | Catalytic activity at 2-fold IC50 (CYP3A [8]): 0.30 ± 0.04 nmol/mg/min

C=C[C@@H]1C2=CCOC(=O)C2=CO[C@H]1O[C@@H]1O[C@H](CO)[C@@H](O)[C@H](O)[C@H]1O [Gentiopicroside]
% of control (catalytic activity at 2-fold IC50) (CYP3A [7]): 122 % of control | Catalytic activity at 2-fold IC50 (CYP3A [7]): 0.54 nmol/mg/min | Percent control catalytic activity at estimated IC50 (CYP3A [3]): 98 percent control | Percent control catalytic activity at estimated 2-fold IC50 (CYP3A [3]): 83 percent control | inhibition of CYP3A catalytic activities at higher concentration (CYP3A [3]; possum): did not show any significant inhibition | % of control (catalytic activity at 2-fold IC50) (CYP3A [3]; possum): 82 % of control | Catalytic activity at 2-fold IC50 (CYP3A [3]; possum): 0.29 ± 0.02 nmol/mg/min | reduced catalytic activity of possum CYP3A, % of the control (CYP3A [3]; possum): ~ 35 % of the control | Percent control catalytic activity at estimated IC50 (CYP3A [4]): 92 percent control | Percent control catalytic activity at estimated 2-fold IC50 (CYP3A [4]): 85 percent control | inhibition of CYP3A catalytic activities at higher concentration (CYP3A [4]; mouse): did not show any significant inhibition | % of control (catalytic activity at 2-fold IC50) (CYP3A [4]; mouse): 97 % of control | Catalytic activity at 2-fold IC50 (CYP3A [4]; mouse): 0.56 ± 0.12 nmol/mg/min | % of control (catalytic activity at 2-fold IC50) (CYP3A [8]): 114 % of control | Catalytic activity at 2-fold IC50 (CYP3A [8]): 0.32 ± 0.03 nmol/mg/min

CCc1oc2ccccc2c1C(=O)c1cc(Br)c(O)c(Br)c1 [Benzbromarone]
% of control (catalytic activity at 2-fold IC50) (CYP3A [7]): 113 % of control | Catalytic activity at 2-fold IC50 (CYP3A [7]): 0.37 nmol/mg/min | Percent control catalytic activity at estimated IC50 (CYP3A [3]): 83 percent control | Percent control catalytic activity at estimated 2-fold IC50 (CYP3A [3]): 78 percent control | inhibition of CYP3A catalytic activities at higher concentration (CYP3A [3]; possum): did not show any significant inhibition | % of control (catalytic activity at 2-fold IC50) (CYP3A [3]; possum): 80 % of control | Catalytic activity at 2-fold IC50 (CYP3A [3]; possum): 0.26 ± 0.02 nmol/mg/min | reduced catalytic activity of possum CYP3A, % of the control (CYP3A [3]; possum): ~ 35 % of the control | Percent control catalytic activity at estimated IC50 (CYP3A [4]): 97 percent control | Percent control catalytic activity at estimated 2-fold IC50 (CYP3A [4]): 96 percent control | inhibition of CYP3A catalytic activities at higher concentration (CYP3A [4]; mouse): did not show any significant inhibition | % of control (catalytic activity at 2-fold IC50) (CYP3A [4]; mouse): 97 % of control | Catalytic activity at 2-fold IC50 (CYP3A [4]; mouse): 0.57 ± 0.08 nmol/mg/min | % of control (catalytic activity at 2-fold IC50) (CYP3A [8]): 104 % of control | Catalytic activity at 2-fold IC50 (CYP3A [8]): 0.34 ± 0.01 nmol/mg/min

CC(=O)c1ccccc1O [2'-Hydroxyacetophenone]
Percent control catalytic activity at estimated IC50 (CYP3A [3]): 108 percent control | Percent control catalytic activity at estimated 2-fold IC50 (CYP3A [3]): 105 percent control | % of control (catalytic activity at 2-fold IC50) (CYP3A [3]; possum): 102 % of control | Catalytic activity at 2-fold IC50 (CYP3A [3]; possum): 0.29 ± 0.05 nmol/mg/min | % of control (catalytic activity at IC50) (CYP3A [3]; possum, compound at estimated IC50 (1 µM where none reported)): 120 % of control | Percent control catalytic activity at estimated IC50 (CYP3A [4]): 112 percent control | Percent control catalytic activity at estimated 2-fold IC50 (CYP3A [4]): 80 percent control | % of control (catalytic activity at 2-fold IC50) (CYP3A [4]; mouse): 75 % of control | Catalytic activity at 2-fold IC50 (CYP3A [4]; mouse): 0.35 ± 0.05 nmol/mg/min | % of control (catalytic activity at IC50) (CYP3A [4]; mouse, compound at estimated IC50 (1 µM where none reported)): 129 % of control | % of control (catalytic activity at 2-fold IC50) (CYP3A [8]): 102 % of control | Catalytic activity at 2-fold IC50 (CYP3A [8]): 0.36 ± 0.05 nmol/mg/min | % of control (catalytic activity at IC50) (CYP3A [8]; compound at estimated IC50 (1 µM where none reported)): 101 % of control

COc1ccc(/C=C/c2cc(O)cc(O)c2)cc1O [Rhapontigenin]
% of control (catalytic activity at 2-fold IC50) (CYP3A [7]): 110 % of control | Catalytic activity at 2-fold IC50 (CYP3A [7]): 0.53 nmol/mg/min | activity at 30 min (CYP3A [7]): 106% | Percent control catalytic activity at estimated IC50 (CYP3A [3]): 103 percent control | Percent control catalytic activity at estimated 2-fold IC50 (CYP3A [3]): 103 percent control | % of control (catalytic activity at 2-fold IC50) (CYP3A [3]; possum): 124 % of control | Catalytic activity at 2-fold IC50 (CYP3A [3]; possum): 0.40 ± 0.03 nmol/mg/min | Percent control catalytic activity at estimated IC50 (CYP3A [4]): 116 percent control | Percent control catalytic activity at estimated 2-fold IC50 (CYP3A [4]): 157 percent control | % of control (catalytic activity at 2-fold IC50) (CYP3A [4]; mouse): 144 % of control | Catalytic activity at 2-fold IC50 (CYP3A [4]; mouse): 0.52 ± 0.05 nmol/mg/min | % of control (catalytic activity at 2-fold IC50) (CYP3A [8]): 101 % of control | Catalytic activity at 2-fold IC50 (CYP3A [8]): 0.30 ± 0.03 nmol/mg/min
